Patent US9732063B2, “Kinase inhibitors” (RESPIVERT LIMITED, priority 2012, dated 2017)
Like-named read-outs stand apart in the source and are kept apart here.

Legend:
[1] = system: PBMCs; assay: LPS-induced TNFα/IL-8 release in PBMC cells; assay type: cell-based; conditions: Homo sapiens, read-out: IC50 Values for Inhibition of Cytokine Release PBMCs IL-8
Summary of the method: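 TNFα and IL-8 in supernatants were measured by sandwich ELISA after 24 h of 1 ng/mL LPS (E. coli O111:B4) at 37 °C, 5% CO2. Test compounds were added 2 h before LPS to PBMCs from healthy subjects, separated on a density gradient.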

[2] = target: GSK3α (Homo sapiens (Human), UniProt P49840); assay: GSK 3α enzyme inhibition (Z-LYTE FRET, Method 2); assay type: biochemical
Summary of the method: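 Z-LYTE FRET: GSK3α preincubated with compound 2 h at RT, then FRET peptide and ATP added (stocks 8 μM and 40 μM) for 1 h, followed by 1 h protease development. Compound stocks 4–0.004 μg/mL; phosphorylation from coumarin/fluorescein emission ratio.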

[3] = system: intestinal mucosa biopsies from the inflamed regions of the colon; assay: Human biopsy assay (intestinal mucosa biopsies of ulcerative colitis patients); assay type: cell-based; conditions: 24 hours; for cytokine (IL-1β, IL-6 and IL-8) release compared to the DMSO control: biopsies from ulcerative colitis patients; for IL-1β release / IL-6 release / IL-8 release: 1 μg/ml, biopsies of UC patients, DMSO control = 100%
Method: Intestinal mucosa biopsies are obtained from the inflamed regions of the colon of IBD patients. […] DMSO control or test compounds at the desired concentration are added to the tissue and incubated for 24 hr in the organ culture chamber. The supernatant is harvested for determination of IL-6, IL-8, IL-1β and TNFα levels by R&D ELISA.

[4] = system: d-U937 cells; assay: LPS-induced TNFα/IL-8 release in d-U937 cells; assay type: cell-based; conditions: Homo sapiens
Method: Cells are pre-incubated with final concentrations of test compound for 2 hr and are then stimulated with 0.1 μg/mL of LPS (from E. coli: O111:B4, Sigma) for 4 hr. The supernatant is collected for determination of TNFα and IL-8 concentrations by sandwich ELISA (Duo-set, R&D systems). […] The relative 50% effective concentration (REC50) is determined from the resultant concentration-response curve. The inhibition of IL-8 production is calculated at each concentration of test compound by comparison with vehicle control.

[5] = system: HT29 cells; assay: IL-1β-induced IL-8 release in HT29 cells; assay type: cell-based; conditions: Homo sapiens
Method: HT29 cells, a human colon adenocarcinoma cell line, are plated in a 96 well plate (24 hrs) and pre-treated with compounds at the desired concentration for 2 hours before addition of 5 ng/mL of IL-1β (Abcam) for 24 hours. Supernatants are harvested for IL-8 quantification by Sandwich ELISA (Duo-set, R&D System). The IC50 is determined from the dose response curve.

[6] = target: c-Src (Homo sapiens (Human), UniProt P12931); assay: c-Src enzyme inhibition (Z-LYTE FRET); assay type: biochemical
Summary of the method: (§1)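 Kinase activity is measured on a dual-labelled synthetic peptide by FRET. ATP is supplied as an 800 μM solution for c-Src and a 60 μM solution for Syk. Compound is tested at four added concentrations, 4 to 0.004 μg/mL.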

[7] = system: PBMCs; assay: IL-2 and IFN gamma release in CD3/CD28 stimulated PBMC cells; assay type: cell-based; conditions: Homo sapiens
Summary of the method: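 They were cultured with compound for 3 days. IL-2 and IFN-γ in supernatants were quantified by sandwich ELISA, and IC50 was derived from the dose-response curve.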

[8] = system: TNBS-induced colitis; conditions: for LP inflammation / Ulcer grade: oral gavage BID, conducted over 2 days, mice; for inflammatory cell infiltrate in the reticular and laminar propria zone / ulcer grade and epithelial repair compared to the vehicle control: dosed orally at either 1 or 5 mg/kg
Method: On Day 0 of the study TNBS (200 μL) is administered intra-colonically via a plastic catheter followed by BID dosing of the vehicle, reference or test compound for 2 or 4 days. During the study animals are weighed every day and stool observations are made and recorded as a score, based on stool consistency. At the time of sacrifice on Day 2 (or Day 4) the large intestine is removed and the length and weight recorded. Sections of the colon are taken for either MPO analysis to determine neutrophil infiltration or for histopathology involving scoring to determine disease severity.

[9] = target: p38 MAPKα (Homo sapiens (Human), UniProt Q16539); assay: p38 MAPKα enzyme inhibition (Z-LYTE FRET, Method 2); assay type: biochemical
[10] = target: Syk (Homo sapiens (Human), UniProt P43405); assay: Syk enzyme inhibition (Z-LYTE FRET); assay type: biochemical
Summary of the method: as §1

[11] = dU937, read-out: IC50 Values for Inhibition of Cytokine Release dU937 cells IL-8
[12] = dU937, read-out: IC50 Values for Inhibition of Cytokine Release dU937 cells TNFα
[13] = HT-29, read-out: IC50 Values for Inhibition of Cytokine Release HT29 cells IL-8
[14] = read-out: IC50 Values for Inhibition of Cytokine Release PBMCs IFNγ
[15] = read-out: IC50 Values for Inhibition of Cytokine Release PBMCs IL-2

c-Src, sequence (P12931 whole entry, looked up): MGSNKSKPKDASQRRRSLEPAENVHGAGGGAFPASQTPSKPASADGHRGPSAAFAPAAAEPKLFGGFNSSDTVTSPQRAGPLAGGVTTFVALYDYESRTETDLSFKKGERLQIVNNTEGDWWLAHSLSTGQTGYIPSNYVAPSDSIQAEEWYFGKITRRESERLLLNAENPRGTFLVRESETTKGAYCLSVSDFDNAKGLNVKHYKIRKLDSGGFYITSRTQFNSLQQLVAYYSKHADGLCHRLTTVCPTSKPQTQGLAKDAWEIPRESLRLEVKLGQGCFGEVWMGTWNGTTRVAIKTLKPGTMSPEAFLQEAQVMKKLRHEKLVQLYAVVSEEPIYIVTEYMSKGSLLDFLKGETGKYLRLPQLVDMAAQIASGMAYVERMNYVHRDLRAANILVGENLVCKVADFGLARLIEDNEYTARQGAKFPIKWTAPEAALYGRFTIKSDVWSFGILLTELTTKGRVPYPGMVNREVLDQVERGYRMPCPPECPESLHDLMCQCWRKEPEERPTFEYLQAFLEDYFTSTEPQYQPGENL
p38 MAPKα, sequence (Q16539 whole entry): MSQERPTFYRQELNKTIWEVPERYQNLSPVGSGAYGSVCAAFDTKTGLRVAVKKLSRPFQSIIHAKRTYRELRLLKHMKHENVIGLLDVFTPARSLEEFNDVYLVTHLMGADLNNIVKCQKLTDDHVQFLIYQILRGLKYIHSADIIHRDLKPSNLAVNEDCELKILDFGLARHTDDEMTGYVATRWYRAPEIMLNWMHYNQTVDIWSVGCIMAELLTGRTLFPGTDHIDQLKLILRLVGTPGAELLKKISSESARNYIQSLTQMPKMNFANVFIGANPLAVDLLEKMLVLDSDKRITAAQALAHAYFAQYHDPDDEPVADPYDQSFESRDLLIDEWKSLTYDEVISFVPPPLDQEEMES
GSK3α, sequence (P49840 whole entry): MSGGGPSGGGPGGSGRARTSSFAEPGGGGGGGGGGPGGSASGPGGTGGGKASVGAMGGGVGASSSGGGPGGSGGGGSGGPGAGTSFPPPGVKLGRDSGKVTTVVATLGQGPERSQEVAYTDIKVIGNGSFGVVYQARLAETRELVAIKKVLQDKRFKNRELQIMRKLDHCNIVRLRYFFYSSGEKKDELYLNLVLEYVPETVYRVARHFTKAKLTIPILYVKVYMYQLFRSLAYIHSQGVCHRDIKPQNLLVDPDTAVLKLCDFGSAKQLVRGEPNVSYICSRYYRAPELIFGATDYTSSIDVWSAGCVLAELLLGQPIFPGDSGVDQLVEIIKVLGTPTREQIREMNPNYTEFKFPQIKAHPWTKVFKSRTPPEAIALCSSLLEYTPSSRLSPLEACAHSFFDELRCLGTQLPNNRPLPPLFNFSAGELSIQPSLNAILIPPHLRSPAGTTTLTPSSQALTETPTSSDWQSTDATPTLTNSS

Row | SMILES | IC50 [1] [nM] | IC50 [2] [nM] | IC50 [4, 11] [nM] | IC50 [4, 12] [nM] | IC50 [5, 13] [nM] | IC50 [6] [nM] | IC50 [7, 14] [nM] | IC50 [7, 15] [nM] | IC50 [9] [nM] | IC50 [10] [nM] | also measured
1 | COCCOCCOCCOc1cc(Nc2nccc(Oc3ccc(NC(=O)Nc4cc(C(C)C)nn4-c4ccc(C)cc4)c4ccccc34)n2)cc(OC)c1 [Example 13, 1-(3-Isopropyl-1-(p-tolyl)-1H-pyrazol-5-yl)-3-(4-((2-((3-methoxy-5-(2-(2-(2-methoxy-ethoxy)ethoxy)ethoxy)phenyl)amino)pyrimidin-4-yl)oxy)naphthalen-1-yl)urea] | 2.5 | > 8920 | 1.4 | 4.4 | 4.7 | 10 | 3 | 19.2 | 65 |  | cytokine (IL-1β, IL-6 and IL-8) release compared to the DMSO control ([3]; 0.1 μg/mL (data not shown)): significantly inhibited; cytokine (IL-1β, IL-6 and IL-8) release compared to the DMSO control ([3]; 1 μg/mL): significantly inhibited; IL-1β release [3]: 10 ± 13%; IL-6 release [3]: 32 ± 64%; IL-8 release [3]: 3 ± 4%; LP inflammation ([8]; 1 mg/kg): 2.1 ± 0.3; Ulcer grade ([8]; 1 mg/kg): 2.5 ± 0.4; LP inflammation ([8]; 5 mg/kg): 2.6 ± 0.3; Ulcer grade ([8]; 5 mg/kg): 3.1 ± 0.3; inflammatory cell infiltrate in the reticular and laminar propria zone [8]: marked reduction; ulcer grade and epithelial repair compared to the vehicle control [8]: marked improvements
2 | COc1ccc(-n2nc(C(C)(C)C)cc2NC(=O)Nc2ccc(Oc3ccnc(Nc4cccc(N=S(C)(C)=O)c4)n3)c3ccccc23)cn1 [Example 2] | 5.3 | 1850 | 5.2 | 16.5 | 18.5 | 8 |  | 51.1 | 81 | 15 | 
3 | C#Cc1cccc(Nc2nccc(Oc3ccc(NC(=O)Nc4cc(C(C)(C)C)nn4-c4ccc(OC)nc4)c4ccccc34)n2)c1 [Example 1, 1-(3-(tert-Butyl)-1-(6-methoxypyridin-3-yl)-1H-pyrazol-5-yl)-3-(4-((2-((3-ethynylphenyl)-amino)pyrimidin-4-yl)oxy)naphthalen-1-yl)urea] |  | > 10000 |  |  |  | 28 |  |  | 316 | 77 | IC50 ([1]; LPS-stimulated PBMCs): 11.5 nM; IC50 ([4]; dU937, LPS-stimulated d-U937 cells, method describes REC50 relative to BIRB796, read-out: IC50 Values for Inhibition of Cytokine Release dU937 cells TNFα): 3.6 nM; IC50 ([4]; dU937, LPS-stimulated d-U937 cells, read-out: IC50 Values for Inhibition of Cytokine Release dU937 cells IL-8): 2.1 nM; IC50 ([5]; HT-29, IL-1β-stimulated HT29 cells, read-out: IC50 Values for Inhibition of Cytokine Release HT29 cells IL-8): 17.4 nM; IC50 ([7]; CD3/CD28 stimulated PBMCs, read-out: IC50 Values for Inhibition of Cytokine Release PBMCs IL-2): 39.8 nM
4 | COCCOCCOCCOc1cc(Nc2nccc(Oc3ccc(NC(=O)Nc4cc(C(C)(C)C)nn4-c4ccc(C)cc4)c4ccccc34)n2)cc(OC)c1 [Example 37, 1-(3-(tert-Butyl)-1-(p-tolyl)-1H-pyrazol-5-yl)-3-(4-((2-((3-methoxy-5-(2-(2-(2-methoxy-ethoxy)ethoxy)ethoxy)phenyl)amino)pyrimidin-4-yl)oxy)naphthalen-1-yl)urea] | 1.8 | 6360 | 1.7 |  | 1.7 | 11 | 1.5 | 34.8 | 153 | 36 | 
5 | COc1cc(Nc2nccc(Oc3ccc(NC(=O)Nc4cc(C(C)(C)C)nn4-c4ccc(C)cc4)c4ccccc34)n2)cc(S(=O)(=O)C2CC2)c1 [Example 47, 1-(3-(tert-Butyl)-1-(p-tolyl)-1H-pyrazol-5-yl)-3-(4-((2-((3-(cyclopropylsulfonyl)-5-methoxy-phenyl)amino)pyrimidin-4-yl)oxy)naphthalen-1-yl)urea] | 2.6 | 6830 | 1.2 | 0.6 | 1.5 | 46 | 1.1 | 95.8 | 162 |  | cytokine (IL-1β, IL-6 and IL-8) release compared to the DMSO control ([3]; 1 μg/mL): significantly inhibited; IL-1β release [3]: 5 ± 6%; IL-6 release [3]: 17 ± 5%; IL-8 release [3]: 26 ± 15%; LP inflammation ([8]; 1 mg/kg): 2.6 ± 0.3; Ulcer grade ([8]; 1 mg/kg): 3.5 ± 0.4; LP inflammation ([8]; 5 mg/kg): 2.1 ± 0.3; Ulcer grade ([8]; 5 mg/kg): 2.8 ± 0.4; inflammatory cell infiltrate in the reticular and laminar propria zone [8]: marked reduction; ulcer grade and epithelial repair compared to the vehicle control [8]: marked improvements
6 | COCCOCCOCCOc1cc(Nc2nccc(Oc3ccc(NC(=O)Nc4cc(C(C)(C)C)nn4-c4ccc(OC)nc4)c4ccccc34)n2)cc(OC)c1 [Example 38, 1-(3-(tert-Butyl)-1-(6-methoxypyridin-3-yl)-1H-pyrazol-5-yl)-3-(4-((2-((3-methoxy-5-(2-(2-(2-methoxyethoxyl)ethoxy)ethoxy)phenyl)amino)pyrimidin-4-yl)oxy)naphthalen-1-yl)urea] | 1.5 | 5440 | 1 |  | 1.8 | 10 | 1.3 | 40.9 | 132 | 25 | 
7 | COCCOCCOCCOc1cc(Nc2nccc(Oc3ccc(NC(=O)Nc4cc(C(C)(C)C)nn4-c4ccc(C)cc4)c4ccccc34)n2)cc(OC)n1 [Example 69, 1-(3-(tert-Butyl)-1-(p-tolyl)-1H-pyrazol-5-yl)-3-(4-((2-((2-methoxy-6-(2-(2-(2-methoxyethoxy)ethoxy)ethoxy)pyridin-4-yl)amino)pyrimidin-4-yl)oxy)naphthalen-1-yl)urea] | 1.6 | > 10000 | 0.9 | 1.2 | 3.1 | 14 | 1.4 | 50.3 | 172 | 27 | 
8 | Cc1ccc(-n2nc(C(C)C)cc2NC(=O)Nc2ccc(Oc3ccnc(Nc4cccc(OS(C)(=O)=O)c4)n3)c3ccccc23)cc1 [Example 11, 3-(4-((4-(3-(3-Isopropyl-1-(p-tolyl)-1H-pyrazol-5-yl)ureido)naphthalen-1-yl)oxy)pyrimidin-2-yl)amino)phenyl methanesulfonate] | 3.6 | 8650 | 1.4 | 0.9 | 5.3 | 20 |  | 151 | 50 | > 622 | 
9 | COCCOCCOCCOc1cccc(Nc2nccc(Oc3ccc(NC(=O)Nc4cc(C(C)C)nn4-c4ccc(C)cc4)c4ccccc34)n2)c1 [Example 9, 1-(3-Isopropyl-1-(P-tolyl)-1H-pyrazol-5-yl)-3-(4-((2-((3-(2-(2-(2-methoxyethoxy)ethoxy)-ethoxy)phenyl)amino)pyrimidin-4-yl)oxy)naphthalen-1-yl)urea] | 3.1 | 3720 | 2.8 | 1.5 | 4.5 | 154 |  |  | 26 | > 1000 | 
